In publication PMC8617627, “Novel DYRK1A Inhibitor Rescues Learning and Memory Deficits in a Mouse Model of Down Syndrome” (Pharmaceuticals, 2021) one finds remaining activity data, which are given here for two molecules.

Test in all cases: Kinase profile (33P ATP filter binding)
Common to all, as to format: biochemical
Conditions in all cases: read-out: Remaining protein kinase activity

Assay [1] has as its target BRK (Homo sapiens, UniProt Q13882).
Assay [2] has as its target EPH-A2 (Homo sapiens, UniProt P29317).
Assay [3] has as its target HER4 (Homo sapiens, UniProt Q15303).
Assay [4] deals with MARK1 (Homo sapiens, UniProt Q9P0L2).
Chain of MARK1 (Q9P0L2 whole entry): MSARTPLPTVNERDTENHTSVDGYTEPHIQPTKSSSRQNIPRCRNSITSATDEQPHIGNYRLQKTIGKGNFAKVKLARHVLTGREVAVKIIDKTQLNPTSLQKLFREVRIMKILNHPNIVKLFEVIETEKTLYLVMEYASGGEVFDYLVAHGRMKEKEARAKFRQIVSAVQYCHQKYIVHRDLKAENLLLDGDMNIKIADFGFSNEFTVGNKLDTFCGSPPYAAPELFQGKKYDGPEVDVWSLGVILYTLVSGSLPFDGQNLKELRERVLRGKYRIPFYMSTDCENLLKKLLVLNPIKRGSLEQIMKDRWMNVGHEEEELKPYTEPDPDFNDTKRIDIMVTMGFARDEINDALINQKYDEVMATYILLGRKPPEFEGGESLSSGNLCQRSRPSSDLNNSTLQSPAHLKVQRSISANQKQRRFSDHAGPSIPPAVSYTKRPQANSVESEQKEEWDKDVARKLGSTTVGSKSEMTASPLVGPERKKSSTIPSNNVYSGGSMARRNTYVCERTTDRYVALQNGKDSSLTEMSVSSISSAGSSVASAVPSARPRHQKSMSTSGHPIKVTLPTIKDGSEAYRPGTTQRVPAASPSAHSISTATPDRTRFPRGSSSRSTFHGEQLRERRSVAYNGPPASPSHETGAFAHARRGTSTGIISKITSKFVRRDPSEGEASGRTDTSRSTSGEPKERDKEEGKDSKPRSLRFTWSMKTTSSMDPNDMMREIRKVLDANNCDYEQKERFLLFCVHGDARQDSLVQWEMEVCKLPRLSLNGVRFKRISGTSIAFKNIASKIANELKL
Assay [5] addresses MEKK1 (Homo sapiens, UniProt Q13233).
Assay [6] concerns the target T1, PKD1 (Homo sapiens, UniProt Q15139).
T1 sequence (Q15139 1-912): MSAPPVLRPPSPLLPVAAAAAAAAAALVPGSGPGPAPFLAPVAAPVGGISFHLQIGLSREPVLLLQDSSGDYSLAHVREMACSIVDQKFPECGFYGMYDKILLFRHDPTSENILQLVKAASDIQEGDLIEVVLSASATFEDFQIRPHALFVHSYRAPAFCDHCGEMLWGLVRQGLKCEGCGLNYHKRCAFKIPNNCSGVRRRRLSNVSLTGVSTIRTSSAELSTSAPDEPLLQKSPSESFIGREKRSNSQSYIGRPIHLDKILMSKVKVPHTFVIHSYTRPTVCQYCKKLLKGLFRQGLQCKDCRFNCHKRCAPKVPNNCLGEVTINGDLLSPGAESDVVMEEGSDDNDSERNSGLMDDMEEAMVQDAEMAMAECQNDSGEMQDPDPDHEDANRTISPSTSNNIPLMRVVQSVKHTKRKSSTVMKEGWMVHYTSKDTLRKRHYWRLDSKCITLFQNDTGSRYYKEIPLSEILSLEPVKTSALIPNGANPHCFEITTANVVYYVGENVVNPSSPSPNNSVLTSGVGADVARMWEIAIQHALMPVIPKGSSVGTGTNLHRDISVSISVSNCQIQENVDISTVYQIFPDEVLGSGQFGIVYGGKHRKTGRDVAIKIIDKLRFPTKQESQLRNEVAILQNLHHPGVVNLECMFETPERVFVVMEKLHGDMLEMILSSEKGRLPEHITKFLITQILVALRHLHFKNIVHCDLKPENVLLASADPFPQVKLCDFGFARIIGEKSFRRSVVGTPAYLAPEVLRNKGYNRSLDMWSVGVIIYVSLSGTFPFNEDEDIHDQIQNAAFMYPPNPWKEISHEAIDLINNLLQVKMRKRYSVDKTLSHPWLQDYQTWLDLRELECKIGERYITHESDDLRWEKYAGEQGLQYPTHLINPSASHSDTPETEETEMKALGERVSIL

The target in assay [7] is T2, SGK1 (Homo sapiens, UniProt O00141).
T2 sequence (O00141 1-431): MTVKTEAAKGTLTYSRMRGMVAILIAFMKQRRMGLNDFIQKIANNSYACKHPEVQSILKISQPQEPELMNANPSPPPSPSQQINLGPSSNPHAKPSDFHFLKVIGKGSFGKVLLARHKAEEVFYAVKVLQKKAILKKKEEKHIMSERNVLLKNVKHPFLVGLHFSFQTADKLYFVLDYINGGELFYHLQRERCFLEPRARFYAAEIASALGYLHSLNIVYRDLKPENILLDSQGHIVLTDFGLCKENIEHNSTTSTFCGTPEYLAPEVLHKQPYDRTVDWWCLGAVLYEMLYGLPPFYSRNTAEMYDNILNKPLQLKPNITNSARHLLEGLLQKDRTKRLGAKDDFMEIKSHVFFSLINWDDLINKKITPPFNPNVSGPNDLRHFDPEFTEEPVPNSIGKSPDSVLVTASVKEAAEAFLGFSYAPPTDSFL

Where two headings read alike, the source gives them in different places.

Chain of BRK (Q13882 whole entry): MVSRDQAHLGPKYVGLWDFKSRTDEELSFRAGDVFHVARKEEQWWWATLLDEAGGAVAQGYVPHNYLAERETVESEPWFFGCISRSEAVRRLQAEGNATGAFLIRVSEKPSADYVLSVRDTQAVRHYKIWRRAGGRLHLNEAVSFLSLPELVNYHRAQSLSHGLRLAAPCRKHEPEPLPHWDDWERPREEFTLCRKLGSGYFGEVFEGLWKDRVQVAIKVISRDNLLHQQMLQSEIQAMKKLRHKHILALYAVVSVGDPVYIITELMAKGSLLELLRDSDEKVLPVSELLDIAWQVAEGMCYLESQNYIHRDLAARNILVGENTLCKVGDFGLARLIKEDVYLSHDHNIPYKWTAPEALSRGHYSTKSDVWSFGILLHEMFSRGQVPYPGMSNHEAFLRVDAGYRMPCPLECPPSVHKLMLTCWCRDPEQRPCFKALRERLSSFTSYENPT
Chain of MEKK1 (Q13233 whole entry): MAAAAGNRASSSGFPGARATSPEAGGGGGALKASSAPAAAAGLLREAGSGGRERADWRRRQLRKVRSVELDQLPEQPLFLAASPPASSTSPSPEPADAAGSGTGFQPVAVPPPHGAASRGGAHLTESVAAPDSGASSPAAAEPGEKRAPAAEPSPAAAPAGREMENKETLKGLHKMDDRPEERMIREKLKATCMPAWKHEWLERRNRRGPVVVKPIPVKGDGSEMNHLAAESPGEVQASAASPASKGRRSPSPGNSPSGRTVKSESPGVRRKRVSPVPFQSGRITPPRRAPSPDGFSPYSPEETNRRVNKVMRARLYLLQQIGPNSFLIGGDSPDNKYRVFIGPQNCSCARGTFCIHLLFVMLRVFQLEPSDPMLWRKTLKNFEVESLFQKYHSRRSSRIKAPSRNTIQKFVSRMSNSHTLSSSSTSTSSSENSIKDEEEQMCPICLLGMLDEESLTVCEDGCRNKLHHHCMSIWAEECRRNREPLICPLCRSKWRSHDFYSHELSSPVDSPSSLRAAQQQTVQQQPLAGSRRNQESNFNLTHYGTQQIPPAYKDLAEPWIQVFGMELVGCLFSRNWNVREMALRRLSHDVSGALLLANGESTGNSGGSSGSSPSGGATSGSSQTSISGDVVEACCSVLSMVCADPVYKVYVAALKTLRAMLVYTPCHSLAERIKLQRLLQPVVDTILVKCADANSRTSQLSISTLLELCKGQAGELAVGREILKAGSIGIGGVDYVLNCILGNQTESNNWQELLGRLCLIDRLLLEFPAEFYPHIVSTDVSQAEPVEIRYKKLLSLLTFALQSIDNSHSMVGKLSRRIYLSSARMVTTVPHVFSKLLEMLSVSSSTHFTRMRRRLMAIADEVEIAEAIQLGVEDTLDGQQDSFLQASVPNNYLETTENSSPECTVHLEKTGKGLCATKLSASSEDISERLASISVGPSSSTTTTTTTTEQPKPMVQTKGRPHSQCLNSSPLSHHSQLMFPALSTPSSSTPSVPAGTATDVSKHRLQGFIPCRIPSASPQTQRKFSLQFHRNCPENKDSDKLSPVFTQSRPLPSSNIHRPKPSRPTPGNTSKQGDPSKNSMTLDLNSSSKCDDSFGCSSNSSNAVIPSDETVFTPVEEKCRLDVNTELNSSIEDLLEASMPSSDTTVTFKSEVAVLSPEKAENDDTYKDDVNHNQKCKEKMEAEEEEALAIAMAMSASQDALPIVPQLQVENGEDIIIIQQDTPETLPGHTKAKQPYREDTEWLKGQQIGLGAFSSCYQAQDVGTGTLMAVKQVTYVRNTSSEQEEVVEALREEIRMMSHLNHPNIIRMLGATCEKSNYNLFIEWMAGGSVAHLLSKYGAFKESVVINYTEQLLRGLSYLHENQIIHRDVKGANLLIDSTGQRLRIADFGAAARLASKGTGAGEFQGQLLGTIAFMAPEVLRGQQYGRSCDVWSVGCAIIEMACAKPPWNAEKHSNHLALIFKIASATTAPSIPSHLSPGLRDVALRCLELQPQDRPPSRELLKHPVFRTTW
Chain of EPH-A2 (P29317 24-976): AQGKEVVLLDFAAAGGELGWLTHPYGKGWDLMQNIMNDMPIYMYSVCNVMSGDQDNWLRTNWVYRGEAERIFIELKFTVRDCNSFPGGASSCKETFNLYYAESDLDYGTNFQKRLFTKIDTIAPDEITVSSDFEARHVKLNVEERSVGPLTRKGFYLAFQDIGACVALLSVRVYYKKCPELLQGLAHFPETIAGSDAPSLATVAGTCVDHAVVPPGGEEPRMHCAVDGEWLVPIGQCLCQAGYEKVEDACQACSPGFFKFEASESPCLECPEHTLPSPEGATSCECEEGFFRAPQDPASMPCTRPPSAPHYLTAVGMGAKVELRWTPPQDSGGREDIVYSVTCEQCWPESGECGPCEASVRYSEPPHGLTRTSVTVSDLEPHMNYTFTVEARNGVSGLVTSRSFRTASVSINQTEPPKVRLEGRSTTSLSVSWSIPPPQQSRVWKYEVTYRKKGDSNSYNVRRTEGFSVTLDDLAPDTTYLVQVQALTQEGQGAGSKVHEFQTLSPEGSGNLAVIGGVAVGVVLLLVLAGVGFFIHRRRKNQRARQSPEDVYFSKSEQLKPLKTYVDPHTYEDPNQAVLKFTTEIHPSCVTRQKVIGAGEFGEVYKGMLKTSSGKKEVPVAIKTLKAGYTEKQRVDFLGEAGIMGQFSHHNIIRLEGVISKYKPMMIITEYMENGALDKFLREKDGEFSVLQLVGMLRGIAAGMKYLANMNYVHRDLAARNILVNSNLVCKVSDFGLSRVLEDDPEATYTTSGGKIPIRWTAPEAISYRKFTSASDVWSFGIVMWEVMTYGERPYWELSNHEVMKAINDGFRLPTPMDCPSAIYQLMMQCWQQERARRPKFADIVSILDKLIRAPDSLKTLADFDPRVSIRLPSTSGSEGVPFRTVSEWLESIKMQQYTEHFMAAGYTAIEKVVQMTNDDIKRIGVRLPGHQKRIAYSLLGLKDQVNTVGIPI
Chain of HER4 (Q15303 26-1308): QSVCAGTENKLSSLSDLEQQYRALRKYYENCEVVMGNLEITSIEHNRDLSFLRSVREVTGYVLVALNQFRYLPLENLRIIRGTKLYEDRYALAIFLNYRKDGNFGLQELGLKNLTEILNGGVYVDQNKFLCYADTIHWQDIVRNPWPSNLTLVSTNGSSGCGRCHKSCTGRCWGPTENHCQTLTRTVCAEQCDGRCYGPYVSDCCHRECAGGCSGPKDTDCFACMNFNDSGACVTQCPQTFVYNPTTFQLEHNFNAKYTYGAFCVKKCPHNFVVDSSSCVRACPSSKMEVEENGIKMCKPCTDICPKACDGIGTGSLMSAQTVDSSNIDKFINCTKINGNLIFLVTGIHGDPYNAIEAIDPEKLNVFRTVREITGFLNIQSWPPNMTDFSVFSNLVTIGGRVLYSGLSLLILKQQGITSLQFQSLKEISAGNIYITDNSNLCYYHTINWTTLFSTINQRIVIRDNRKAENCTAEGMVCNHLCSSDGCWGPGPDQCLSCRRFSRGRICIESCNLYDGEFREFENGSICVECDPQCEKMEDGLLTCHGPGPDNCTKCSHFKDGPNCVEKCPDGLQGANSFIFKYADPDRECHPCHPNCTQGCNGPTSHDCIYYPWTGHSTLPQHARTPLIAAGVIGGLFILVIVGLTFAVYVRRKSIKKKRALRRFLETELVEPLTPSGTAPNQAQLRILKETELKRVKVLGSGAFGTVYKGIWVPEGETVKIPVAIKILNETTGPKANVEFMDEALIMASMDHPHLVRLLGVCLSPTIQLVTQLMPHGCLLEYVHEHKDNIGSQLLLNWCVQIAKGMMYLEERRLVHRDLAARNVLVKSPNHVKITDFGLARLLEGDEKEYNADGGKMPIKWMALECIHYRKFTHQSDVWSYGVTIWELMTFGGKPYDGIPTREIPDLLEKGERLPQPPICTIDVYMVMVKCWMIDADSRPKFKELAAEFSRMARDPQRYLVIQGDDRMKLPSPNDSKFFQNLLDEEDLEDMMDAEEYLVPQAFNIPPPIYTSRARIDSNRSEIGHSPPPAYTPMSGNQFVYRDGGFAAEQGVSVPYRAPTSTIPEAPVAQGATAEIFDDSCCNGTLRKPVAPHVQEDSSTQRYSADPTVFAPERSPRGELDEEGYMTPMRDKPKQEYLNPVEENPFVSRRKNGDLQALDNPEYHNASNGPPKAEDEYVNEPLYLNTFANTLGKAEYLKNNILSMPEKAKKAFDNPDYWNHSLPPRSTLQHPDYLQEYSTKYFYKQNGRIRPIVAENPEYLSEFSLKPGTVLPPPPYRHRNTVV

For the molecule `COc1ccc2sc(-c3cncc(N)c3)nc2c1` [compound 1, 5-(5-Methoxybenzo[d]thiazol-2-yl)pyridin-3-amine], the remaining activity (as a rule, the signal under treatment as a percentage of the control signal) at 1 µM in assay [1] (BRK, 1 μM) is 94%; in assay [2] (EPH-A2, 1 μM), 112%; in assay [3] (HER4, 1 μM) it was 104%; in assay [4] (MARK1, 1 μM), 122%; in assay [5] (MEKK1, 1 μM) it was 132%; in assay [6] (PKD1, 1 μM) it was 94%. In assay [7] (SGK1, 1 μM), the remaining activity at 1 µM amounted to 99%. Also, the remaining activity at 100 µM was 50% in assay [1] (BRK, 100 μM); 90% in assay [2] (EPH-A2, 100 μM); 16% in assay [3] (HER4, 100 μM); 69% in assay [4] (MARK1, 100 μM); 107% in assay [5] (MEKK1, 100 μM); 23% in assay [6] (PKD1, 100 μM). Besides, the remaining activity at 100 µM in assay [7] (SGK1, 100 μM) was determined as 62%.

Regarding `COc1ccc2sc(-c3cncc(NC(C)=O)c3)nc2c1` [PST-001, N-(5-(5-Methoxybenzo[d]thiazol-2-yl)pyridin-3-yl)acetamide], the remaining activity at 1 µM in assay [1] was found to be 106%; in assay [2] it was 124%; in assay [3] it was 103%; in assay [4], 122%; in assay [5], 126%; in assay [6], 103%. Besides, in assay [7], the remaining activity at 1 µM is 102%. The remaining activity at 100 µM in assay [1] is 106%; in assay [2], 119%; in assay [3] it was 94%; in assay [4], 110%; in assay [5], 109%; in assay [6] it was 92%. Besides, the remaining activity at 100 µM in assay [7] came out at 82%.
